Tests used:
Assay in all cases: relative viability (nuclei count vs DMSO), 5 days (fraction); higher = more cells survive
VE-821 + Dasatinib = compound: CS(=O)(=O)c1ccc(-c2cnc(N)c(C(=O)Nc3ccccc3)n2)cc1 [VE-821] + Cc1nc(Nc2ncc(C(=O)Nc3c(C)cccc3Cl)s2)cc(N2CCN(CCO)CC2)n1 [Dasatinib] (partner 0.075 µM)
Method in brief: (§1)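 Lung cancer cell lines were pin-tool dosed in 1536-well plates on the day after seeding, with either a lone drug or a fixed anchor-drug dose plus five library-drug doses (not always all listed) in √10 steps. Nuclei were counted on 4× images after 5 days. Relative viability is the ratio of treated-well to vehicle-well nuclei counts, with each value a median of duplicate plates.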

Vismodegib + Palbociclib = compound: CS(=O)(=O)c1ccc(C(=O)Nc2ccc(Cl)c(-c3ccccn3)c2)c(Cl)c1 [Vismodegib] + CC(=O)c1c(C)c2cnc(Nc3ccc(N4CCNCC4)cn3)nc2n(C2CCCC2)c1=O [Palbociclib] (partner 0.5 µM)
Method in brief: as §1

Vismodegib + Navitoclax = compound: CS(=O)(=O)c1ccc(C(=O)Nc2ccc(Cl)c(-c3ccccn3)c2)c(Cl)c1 [Vismodegib] + CC1(C)CCC(c2ccc(Cl)cc2)=C(CN2CCN(c3ccc(C(=O)NS(=O)(=O)c4ccc(N[C@H](CCN5CCOCC5)CSc5ccccc5)c(S(=O)(=O)C(F)(F)F)c4)cc3)CC2)C1 [Navitoclax] (partner 0.5 µM)
Method in brief: as §1

Vismodegib + Pemetrexed = compound: CS(=O)(=O)c1ccc(C(=O)Nc2ccc(Cl)c(-c3ccccn3)c2)c(Cl)c1 [Vismodegib] + Nc1nc2[nH]cc(CCc3ccc(C(=O)N[C@@H](CCC(=O)O)C(=O)O)cc3)c2c(=O)[nH]1 [Pemetrexed] (partner 0.2 µM)
Method in brief: as §1

Cell Line | relative viability (VE-821 + Dasatinib; first compound 0.08 µM) | relative viability (VE-821 + Dasatinib; first compound 0.253 µM) | relative viability (VE-821 + Dasatinib; first compound 0.8 µM) | relative viability (VE-821 + Dasatinib; first compound 2.53 µM) | relative viability (VE-821 + Dasatinib; first compound 8 µM) | relative viability (Vismodegib + Palbociclib; first compound 0.08 µM) | relative viability (Vismodegib + Palbociclib; first compound 0.253 µM) | relative viability (Vismodegib + Palbociclib; first compound 0.8 µM) | relative viability (Vismodegib + Palbociclib; first compound 2.53 µM) | relative viability (Vismodegib + Palbociclib; first compound 8 µM) | relative viability (Vismodegib + Navitoclax; first compound 0.08 µM) | relative viability (Vismodegib + Navitoclax; first compound 0.253 µM) | relative viability (Vismodegib + Navitoclax; first compound 0.8 µM) | relative viability (Vismodegib + Navitoclax; first compound 2.53 µM) | relative viability (Vismodegib + Navitoclax; first compound 8 µM) | relative viability (Vismodegib + Pemetrexed; first compound 0.08 µM) | relative viability (Vismodegib + Pemetrexed; first compound 0.253 µM) | relative viability (Vismodegib + Pemetrexed; first compound 0.8 µM) | relative viability (Vismodegib + Pemetrexed; first compound 2.53 µM) | relative viability (Vismodegib + Pemetrexed; first compound 8 µM)
HCC-366 | 0.67 | 0.633 | 0.516 | 0.255 | 0.0491 | 0.342 | 0.373 | 0.463 | 0.456 | 0.449 | 0.991 | 0.98 | 0.974 | 1.1 | 1.09 | 0.164 | 0.17 | 0.186 | 0.166 | 0.158
HCC-827 | 0.322 | 0.294 | 0.289 | 0.421 | 0.262 | 0.222 | 0.517 | 0.449 | 0.446 | 0.481 | 1.03 | 1.04 | 0.961 | 1.03 | 1.02 | 0.246 | 0.283 | 0.563 | 0.284 | 0.267
HOP-62 | 0.708 | 0.656 | 0.651 | 0.858 | 0.684 | 0.4 | 0.411 | 0.425 | 0.46 | 0.39 | 0.985 | 1.06 | 0.915 | 0.819 | 1.07 | 0.305 | 0.295 | 0.263 | 0.377 | 0.272
IA-LM |  |  |  |  |  |  |  |  |  |  | 0.912 | 0.725 | 0.908 | 0.82 | 0.868 |  |  |  |  | 
LC-2-ad | 0.856 | 0.607 | 0.679 | 0.586 | 0.404 | 0.477 | 0.501 | 0.482 | 0.479 | 0.544 | 0.573 | 0.447 | 0.422 | 0.522 | 0.553 | 0.269 | 0.271 | 0.278 | 0.276 | 0.26
LCLC-97TM1 | 1.1 | 0.763 | 0.756 | 0.838 | 0.639 | 0.202 | 0.208 | 0.263 | 0.203 | 0.213 |  |  | 0.443 |  | 0.63 | 0.205 | 0.171 | 0.149 | 0.176 | 0.178
LCLC-103H | 0.418 | 0.525 | 0.31 | 0.474 | 0.513 | 0.473 | 0.475 | 0.481 | 0.517 | 0.526 |  |  |  |  |  | 0.431 | 0.552 | 0.474 | 0.473 | 0.481
LK-2 | 0.269 | 0.26 | 0.273 | 0.352 | 0.38 | 0.72 | 0.708 | 0.607 | 0.83 | 0.745 | 0.818 | 0.734 | 0.797 | 0.859 | 0.784 | 0.248 | 0.255 | 0.307 | 0.238 | 0.266
LOU-NH91 | 0.571 | 0.489 | 0.567 | 0.55 | 0.584 | 0.536 | 0.582 | 0.496 | 0.523 | 0.553 | 0.618 | 0.686 | 0.687 | 0.672 | 0.747 | 0.349 | 0.385 | 0.42 | 0.416 | 0.414
NCI-H358 | 0.157 | 0.156 | 0.183 | 0.209 | 0.213 | 0.141 | 0.181 | 0.138 | 0.135 | 0.16 |  |  |  |  |  | 0.18 | 0.183 | 0.174 | 0.172 | 0.181
NCI-H522 | 0.77 | 0.918 | 0.704 | 0.902 | 0.825 | 1.16 | 0.985 | 0.894 | 0.923 | 1.03 |  |  |  |  |  | 1.18 | 0.731 | 1.01 | 0.836 | 0.988
NCI-H596 | 0.545 | 0.653 | 0.643 | 0.679 | 0.615 |  |  |  |  |  | 0.95 | 1.01 | 0.848 | 0.882 | 0.904 | 0.475 | 0.489 | 0.394 | 0.525 | 0.502
NCI-H650 | 0.501 | 0.445 | 0.465 | 0.528 | 0.426 | 0.359 | 0.323 | 0.309 | 0.338 | 0.341 |  |  |  |  |  | 0.896 | 0.983 | 0.898 | 0.958 | 1.01
NCI-H661 | 0.934 | 0.668 | 0.884 | 0.865 | 0.434 | 0.446 | 0.432 | 0.439 | 0.39 | 0.405 |  |  |  |  |  | 0.915 | 0.854 | 0.887 | 0.876 | 0.941
NCI-H727 | 0.457 | 0.334 | 0.374 | 0.32 | 0.317 | 0.687 | 0.649 | 0.631 | 0.723 | 0.639 | 0.496 | 0.428 | 0.453 | 0.36 | 0.386 |  |  |  |  | 
NCI-H1299 |  |  |  |  |  |  |  |  |  |  | 1.03 | 1 | 1.09 | 0.935 | 1.01 |  |  |  |  | 
NCI-H1563 | 0.449 | 0.483 | 0.405 | 0.456 | 0.453 |  |  |  |  |  |  |  |  |  |  | 0.458 | 0.806 | 0.767 | 0.762 | 0.839
NCI-H1623 | 0.565 | 0.53 | 0.518 | 0.525 | 0.606 |  |  |  |  |  |  |  |  |  |  |  |  |  |  | 
NCI-H1648 |  |  |  |  |  | 0.282 | 0.246 | 0.214 | 0.274 | 0.241 |  |  |  |  |  | 0.679 | 0.832 | 0.731 | 0.782 | 0.702
NCI-H1703 |  |  |  |  |  |  |  |  |  |  | 1.02 | 1.05 | 0.986 | 1.23 | 1.47 |  |  |  |  | 
NCI-H2342 | 0.331 | 0.329 | 0.311 | 0.324 | 0.293 | 0.517 | 0.699 | 0.472 | 0.574 | 0.483 |  |  |  |  |  | 0.769 | 0.821 | 0.81 | 0.611 | 0.719
SW 900 | 0.7 | 0.545 | 0.397 | 0.658 | 0.37 | 0.641 | 0.514 | 0.634 |  | 0.603 |  |  |  |  |  | 0.496 | 0.472 | 0.495 |  | 0.496
